Measurements published in patent publication US20100062993A1, “Adenosine Nucleotides as Dietary Supplements and as Agents in the Prevention of Cancer and the Metastasis Thereof” (priority 2008, published 2010).

Tested on: human cancer cell linings
Test: Mice implanted with human cancer (tumor) cell linings: efficacy of MTA relative to SAMe
Assay type: in vivo
Source text: It is therefore astonishing that MTA, in experimental results on mice implanted with tumor cell linings, was 10 times more efficacious than SAMe. Part of the pharmacodynamics is surely that MTA is toxic to many cancer cells that are deficient in the enzymes that are needed to process it. Yet this 10:1 efficacy ratio is inexplicable under the above suppositions!
This is extremely surprising in light of the above!

For CSC[C@H]1O[C@@H](n2cnc3c(N)ncnc32)[C@H](O)[C@@H]1O [MTA, 5-deoxy-5-methylthioadenosine], the “efficacy relative to SAMe” value (mice implanted with human cancer cell linings, ratio versus SAMe) was “more than 10 fold” and the “efficacy of MTA relative to SAMe (times more efficacious)” value (mice implanted with tumor cell linings, ratio versus SAMe (10:1)) was 10 times.
